Laboratory results from patent EP1600504A1, “Control of transglutaminase catalyzed protein modification by selective irreversible transglutaminase inhibitors” (N-Zyme BioTec GmbH, priority 2004, dated 2005).
Peptide text beside a SMILES is read from it. * marks the point of attachment. Cbz = O=C(OCc1ccccc1)*; Acryloyl = C=CC(=O)*; ClAc = O=C(CCl)*

Experiments:
[1] = tested on: Transglutaminase; experiment: Transglutaminase-catalysed labelling reaction stopped by inhibitor, SDS-PAGE fluorescence (Beispiel 3); assay type: biochemical
Protocol: (§1) Alle nachfolgend beschriebenen Experimente wurden nach dem gleichen Standardprotokoll durchgeführt. Dabei werden das jeweilige Zielprotein und das farbstofftragende amin- oder glutaminhaltige Substrat in einem geeigneten Puffer vorgelegt und für 5 Min. auf 37°C temperiert. Anschließend wird durch Zugabe von Transglutaminase die Reaktion gestartet. Nach variierenden Inkubationszeiten, durch die jeweils verschiedene Markierungsgrade erreicht werden, wird durch Zugabe eines Inhibitors die Transglutaminase vollständig und irreversibel inaktiviert (Reaktionsabbruch 1). In Kontrollexperimenten wird die Markierungsreaktion durch Abtrennung des ungebundenen, farbstofftragenden Substrates unterbrochen (Reaktionsabbruch 2). Die Abtrennung des ungebundenen Farbstoffes erfolgt unter Normaldruck über eine PD-10-Säule (Amersham Biosciences). Dieses allgemein einsetzbare Verfahren zur schnellen Abtrennung kleiner Moleküle von Makromolekülen wie Proteinen basiert auf dem Prinzip der Gelpermeationschromatographie und kann als das vorteilhafteste Verfahren zur Reaktionskontrolle nach dem Stand der Technik angesehen werden. Andere Verfahren, mit denen die weitere katalytische Markierungsreaktion abgebrochen werden könnte, sind weniger geeignet oder nicht allgemein einsetzbar (z. B. thermische, unspezifische chemische oder affinitätschromatographische Methoden). […]

[2] = target: T1, bakterielle Transglutaminase (Streptomyces mobaraensis, UniProt P81453); experiment: Labelling of recombinant hIRS1-p30-N-K stopped by inhibitor, SDS-PAGE fluorescence (Beispiel 6); assay type: biochemical
T1 sequence (P81453 77-407): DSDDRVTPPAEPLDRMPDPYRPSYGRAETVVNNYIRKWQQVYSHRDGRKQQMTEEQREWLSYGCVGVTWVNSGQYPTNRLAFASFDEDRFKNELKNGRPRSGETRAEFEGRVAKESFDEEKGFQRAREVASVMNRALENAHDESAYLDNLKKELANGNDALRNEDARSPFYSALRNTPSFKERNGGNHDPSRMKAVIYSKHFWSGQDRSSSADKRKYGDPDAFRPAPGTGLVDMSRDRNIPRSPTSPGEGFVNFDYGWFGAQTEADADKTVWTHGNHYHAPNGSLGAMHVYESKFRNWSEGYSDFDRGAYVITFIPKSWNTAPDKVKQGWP
Protocol: as §1

[3] = target: T1, bakterielle Transglutaminase; experiment: Labelling of recombinant Concanavalin A stopped by inhibitor, SDS-PAGE fluorescence (Beispiel 4); assay type: biochemical; conditions: rekombinantes Concanavalin A, stopped after 2 and 5 min, then 30 min RT
Protocol: as §1

[4] = tested on: Transglutaminase; experiment: Transglutaminase-catalysed labelling reaction stopped by inhibitor, SDS-PAGE fluorescence (Beispiel 1); assay type: biochemical; conditions: Zielprotein N,N-Dimethylcasein, stopped after 2, 10 and 20 min, large excess of unbound dye present, transglutaminase only given in an image table
Protocol: as §1

[5] = target: T2, Meerschweinchenlebertransglutaminase (Cavia cutleri, UniProt P08587); experiment: Labelling of recombinant hLeptin stopped by inhibitor, RP-HPLC (Beispiel 7); assay type: biochemical, Meerschweinchen
T2 sequence (P08587 2-690 limits assumed): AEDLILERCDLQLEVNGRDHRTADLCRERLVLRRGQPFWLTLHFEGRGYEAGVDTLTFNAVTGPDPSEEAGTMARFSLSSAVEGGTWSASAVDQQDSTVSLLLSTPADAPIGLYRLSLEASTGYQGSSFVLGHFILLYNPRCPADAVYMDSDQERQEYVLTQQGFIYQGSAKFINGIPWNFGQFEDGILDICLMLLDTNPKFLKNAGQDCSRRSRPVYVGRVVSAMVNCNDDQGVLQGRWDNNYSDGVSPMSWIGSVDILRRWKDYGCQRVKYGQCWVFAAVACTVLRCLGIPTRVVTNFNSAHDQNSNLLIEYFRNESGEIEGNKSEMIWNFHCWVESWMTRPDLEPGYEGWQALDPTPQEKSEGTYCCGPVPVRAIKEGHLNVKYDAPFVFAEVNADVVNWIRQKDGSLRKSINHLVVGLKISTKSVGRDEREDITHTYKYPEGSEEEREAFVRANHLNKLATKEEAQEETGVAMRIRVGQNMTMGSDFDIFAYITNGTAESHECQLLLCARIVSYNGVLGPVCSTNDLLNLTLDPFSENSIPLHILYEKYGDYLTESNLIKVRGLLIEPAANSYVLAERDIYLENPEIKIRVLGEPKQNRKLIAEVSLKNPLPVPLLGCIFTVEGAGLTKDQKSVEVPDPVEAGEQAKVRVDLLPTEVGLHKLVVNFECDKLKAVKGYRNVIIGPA
Protocol: as §1, with “Methoden). Die Gelpermeationschromatographie wurde jeweils so schnell wie technisch machbar durchgeführt. Dazu wird auf die vorkonditionierte PD-10-Säule 2,5 ml des Reaktionsvolumens aufgetragen und die Lösung vollständig in das Trennmaterial eingebracht. Anschließend wird das Protein mit 3,5 ml Puffer eluiert. Die niedermolekularen Substanzen verbleiben auf der Säule. Der Gesamtprozess benötigt eine Zeitspanne von mindestens 3 Minuten. Während dieser Zeit kann Transglutaminase weiter auf das Zielprotein einwirken.” for “Methoden).”

[6] = tested on: Transglutaminase; experiment: Transglutaminase-catalysed labelling reaction stopped by inhibitor, SDS-PAGE fluorescence (Beispiel 5); assay type: biochemical; conditions: stopped after 2, 5 and 10 min, then 30 min RT
Protocol: as §1

For [N-]=[N+]=CC(=O)CC[C@H](NC(=O)OCc1ccccc1)C(=O)NCC(=O)O [Z-DON-Gly-OH, N^α-Benzyloxycarbonyl-L-(6-diazo-5-oxonorleucinyl)glycin], the “weiteres Labeling des Zielproteins nach Abtrennung des Inhibitors” value ([1]; inhibitor removed by gel permeation chromatography, fresh unbound dye added, 30 min RT) was “kein weiteres Labeling des Zielproteins” and the “Markierungsreaktion nach Zugabe des Inhibitors” value ([1]; stopped after 5 min, sample directly after inhibitor addition) was “wird die Reaktion gestoppt”.
For COC(=O)[C@H](Cc1ccccc1)NC(=O)[C@H](CCC(=O)C=[N+]=[N-])NC(=O)OCc1ccccc1 [Z-DON-Phe-OMe, N^α-Benzyloxycarbonyl-L-(6-diazo-5-oxonorleucinyl)-L-phenylalaninmethylester], the “weitere Modifikation des Zielproteins nach Abtrennung von Farbstoff und Inhibitor” value ([2]; dye and inhibitor removed, kept at RT 30 min, 1 h, 2 h, 4 h) was “keine weitere Modifikation des Zielproteins” and the “Inhibition der Transglutaminase” value ([2]; stopped after 5 min) was “vollständige und irreversible Inhibition der Transglutaminase”.
COC(=O)[C@H](Cc1ccccc1)NC(=O)[C@H](CCC(=O)C[S+](C)C)NC(=O)OCc1ccccc1 [Z-SON-Phe-OMe, Nα-Benzyloxycarbonyl-L-(6-dimethylsulfonium-5-oxonorleucinyl)phenylalaninmethylester] was tested, and the “weitere Markierungsreaktion nach Inhibitorzugabe” value [3] was “keine weitere Markierungsreaktion mehr”.
In the case of CC[C@H](C)[C@H](NC(=O)[C@H](CCC(N)=O)NC(=O)[C@H](CCC(=O)C[S+](C)C)NC(=O)OC(C)(C)C)C(=O)N[C@H](C(=O)OC)C(C)C [Boc-SON-Gln-Ile-Val-OH, N^α-tert.-Butyloxycarbonyl-L-(6-dimethylsulfonium-5-oxonorleucinyl)-L-glutaminyl-L-isoleucinyl-L-valinmethylester], the “weitere katalytische Reaktion nach Zugabe des Inhibitors” value [4] was “Eine weitere katalytische Reaktion findet nach Zugabe des Inhibitors nicht statt”.
In the case of C=CC(=O)NCCCC[C@H](NC(=O)OCc1ccccc1)C(=O)NCC(=O)O [Z-Lys(Acryloylamid)-Gly-OH, N^α-Benzyloxycarbonyl-L-lysinyl(ε-acryloyl)glycin] (Cbz-Lys(Acryloyl)-Gly-OH), the “Inaktivierung der Meerschweinchenlebertransglutaminase” value ([5]; stopped after 5 min) was “inaktiviert Meerschweinchenlebertransglutaminase vollständig”, the “weitere Labeling- und Quervernetzungsreaktionen” value ([5]; stopped after 5 min, then 30 and 60 min RT) was “keine weitere Labeling- und Quervernetzungsreaktionen” and the “weitere enzymatische Reaktionen nach Lagerung” value ([5]; storage 10 days at -20°C, then one hour RT) was “keine weiteren enzymatischen Reaktionen mehr”.
In the case of O=C(O)CNC(=O)[C@H](COC(=O)CCl)NC(=O)OCc1ccccc1 [Z-Ser(OAcCl)-Gly-OH, N^α-Benzyloxycarbonyl-L-serinyl(O-chloracetyl)glycin] (Cbz-Ser(ClAc)-Gly-OH), the “weitere Markierungsreaktionen nach Inhibitorzugabe” value [6] was “keine weiteren Markierungsreaktionen mehr”.
